Here are results for 28 compounds from patent US9556179B2 (BRISTOL-MYERS SQUIBB COMPANY, priority 2012, dated 2017).

Each structure is given as a SMILES string.

One test has as its target CK1ε (Homo sapiens (Human), UniProt P49674). As to the kind of experiment: CK1ε kinase assay (Caliper LABCHIP electrophoretic separation of fluoresceinated peptide substrate and product). Format: biochemical. To be noted: 200 pM enzyme, 50 μM ATP, 22 hours at room temperature. The method, boiled down: (§1)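 IC50 values were obtained by non-linear regression from eleven-concentration titrations. The kinase reactions were incubated for 22 hours at room temperature before termination with 35 mM EDTA.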

The target in a further test is CK1δ (Homo sapiens (Human), UniProt P48730). The experiment in a line: CK1δ kinase assay (Caliper LABCHIP electrophoretic separation of fluoresceinated peptide substrate and product). In kind it is biochemical. Conditions: 200 pM enzyme, 50 μM ATP, 22 hours at room temperature. The method, boiled down: as §1
Chain of CK1δ (P48730 whole entry): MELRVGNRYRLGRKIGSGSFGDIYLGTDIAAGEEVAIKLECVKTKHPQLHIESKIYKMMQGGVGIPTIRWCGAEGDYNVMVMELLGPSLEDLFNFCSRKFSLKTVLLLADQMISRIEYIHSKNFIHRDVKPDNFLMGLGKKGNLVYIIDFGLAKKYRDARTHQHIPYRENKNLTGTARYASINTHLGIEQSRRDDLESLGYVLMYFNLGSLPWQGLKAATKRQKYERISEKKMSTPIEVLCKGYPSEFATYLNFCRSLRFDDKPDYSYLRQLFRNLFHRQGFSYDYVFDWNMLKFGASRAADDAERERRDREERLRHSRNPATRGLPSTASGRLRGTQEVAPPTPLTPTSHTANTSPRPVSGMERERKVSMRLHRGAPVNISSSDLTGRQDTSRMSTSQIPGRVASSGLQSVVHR

Chain of CK1ε (P49674 whole entry): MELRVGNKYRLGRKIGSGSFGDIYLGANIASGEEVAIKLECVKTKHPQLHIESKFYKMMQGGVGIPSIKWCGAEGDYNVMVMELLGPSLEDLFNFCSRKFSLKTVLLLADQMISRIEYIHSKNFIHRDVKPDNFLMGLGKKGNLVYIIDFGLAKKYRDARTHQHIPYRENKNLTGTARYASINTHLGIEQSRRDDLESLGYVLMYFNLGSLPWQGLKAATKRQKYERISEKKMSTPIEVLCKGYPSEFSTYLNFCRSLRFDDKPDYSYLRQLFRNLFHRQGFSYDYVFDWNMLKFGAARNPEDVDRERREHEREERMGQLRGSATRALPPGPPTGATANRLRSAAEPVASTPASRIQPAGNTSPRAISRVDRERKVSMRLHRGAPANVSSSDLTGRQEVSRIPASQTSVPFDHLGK

Usually IC50 stands for the concentration that gives 50% inhibition. Lower therefore signals greater potency in that assay. As to `Cc1nc(-c2ccc(F)cc2)c(-c2ccc3nc(NC(=O)c4cn(C)cn4)cn3n2)n1C` [Compound 362, N-(6-(4-(4-fluorophenyl)-1,2-dimethyl-1H-imidazol-5-yl)imidazo[1,2-b]pyridazin-2-yl)-1-methyl-1H-imidazole-4-carboxamide], the half-maximal inhibitory concentration (IC50) is 87.5 nM on CK1ε and 6.34 nM against CK1δ.

For `CC(=O)N1CCCC1C(=O)Nc1cn2nc(-c3c(-c4ccc(F)cc4)nc(C)n3C)ccc2n1` (centres unmarked) [Compound 363, 1-acetyl-N-(6-(4-(4-fluoro-phenyl)-1,2-dimethyl-1H-imidazol-5-yl)imidazo[1,2-b]pyridazin-2-yl)prolinamide], the IC50 at CK1ε was 26.2 nM; on CK1δ, 2.36 nM.

For the compound `Cc1nc(-c2ccc(F)cc2)c(-c2ccc3nc(NC(=O)c4cn[nH]c4)cn3n2)n1C` [Compound 364, N-(6-(4-(4-fluorophenyl)-1,2-dimethyl-1H-imidazol-5-yl)imidazo[1,2-b]pyridazin-2-yl)-1H-pyrazole-4-carboxamide], the half-inhibitory concentration (IC50) came to 4.01 nM at CK1ε and 0.566 nM against CK1δ.

Take `Cc1oncc1C(=O)Nc1cn2nc(-c3c(-c4ccc(F)cc4)nc(C)n3C)ccc2n1` [Compound 365, N-(6-(4-(4-fluorophenyl)-1,2-dimethyl-1H-imidazol-5-yl)imidazo[1,2-b]pyridazin-2-yl)-5-methyl-4-isoxazole-carboxamide]: the IC50 on CK1ε was 1110 nM; at CK1δ it was 103 nM.

Take `Cc1nc(-c2ccc(F)cc2)c(-c2ccc3nc(NC(=O)C4CCC(=O)N4)cn3n2)n1C` (centres unmarked) [Compound 366, N-(6-(4-(4-fluorophenyl)-1,2-dimethyl-1H-imidazol-5-yl)imidazo[1,2-b]pyridazin-2-yl)-5-oxoprolinamide]: the IC50 against CK1ε is 25.1 nM; against CK1δ, 1.72 nM.

In the case of `Cc1nnc(C(=O)Nc2cn3nc(-c4c(-c5ccc(F)cc5)nc(C)n4C)ccc3n2)o1` [Compound 367, N-(6-(4-(4-fluorophenyl)-1,2-dimethyl-1H-imidazol-5-yl)imidazo[1,2-b]pyridazin-2-yl)-5-methyl-1,3,4-oxa-diazole-2-carboxamide], the IC50 on CK1ε was 49.7 nM; against CK1δ, 3.65 nM.

For the compound `Cc1cc(C(=O)Nc2cn3nc(-c4c(-c5ccc(F)cc5)nc(C)n4C)ccc3n2)nn1C` [Compound 369, N-(6-(4-(4-fluorophenyl)-1,2-dimethyl-1H-imidazol-5-yl)imidazo[1,2-b]pyridazin-2-yl)-1,5-dimethyl-1H-pyrazole-3-carboxamide], the IC50 at CK1ε was found to be 8.74 nM; on CK1δ, 1.41 nM.

For the compound `Cc1nc(-c2ccc(F)cc2)c(-c2ccc3nc(NC(=O)c4cnn[nH]4)cn3n2)n1C` [Compound 370, N-(6-(4-(4-fluorophenyl)-1,2-dimethyl-1H-imidazol-5-yl)imidazo[1,2-b]pyridazin-2-yl)-1H-1,2,3-trizole-4-carboxamide], the IC50 was determined as 16.2 nM against CK1ε and 1.12 nM on CK1δ.

For the compound `Cc1nc(C(=O)Nc2cn3nc(-c4c(-c5ccc(F)cc5)nc(C)n4C)ccc3n2)co1` [Compound 371, N-(6-(4-(4-fluorophenyl)-1,2-dimethyl-1H-imidazol-5-yl)imidazo[1,2-b]pyridazin-2-yl)-2-methyl-1,3-oxazole-4-carboxamide], the IC50 against CK1ε was determined as 19.8 nM; at CK1δ, 2.5 nM.

As to `Cc1nc(C(=O)Nc2cn3nc(-c4c(-c5ccc(F)cc5)nc(C)n4C)ccc3n2)c[nH]1` [Compound 372, N-(6-(4-(4-fluorophenyl)-1,2-dimethyl-1H-imidazol-5-yl)imidazo[1,2-b]pyridazin-2-yl)-2-methyl-1H-imidazole-4-carboxamide], the values for the IC50 against CK1ε and against CK1δ were 28.3 nM and 2.19 nM, respectively.

As for `Cc1nc(-c2ccc(F)cc2)c(-c2ccc3nc(NC(=O)c4ncc[nH]4)cn3n2)n1C` [Compound 373, N-(6-(4-(4-fluorophenyl)-1,2-dimethyl-1H-imidazol-5-yl)imidazo[1,2-b]pyridazin-2-yl)-1H-imidazole-2-carboxamide], the IC50 on CK1ε amounted to 176 nM; against CK1δ it was 18.5 nM.

For `Cc1nc(-c2ccc(F)cc2)c(-c2ccc3nc(NC(=O)c4ccc(C#N)nc4)cn3n2)n1C` [Compound 374, 6-cyano-N-(6-(4-(4-fluoro-phenyl)-1,2-dimethyl-1H-imidazol-5-yl)imidazo[1,2-b]pyridazin-2-yl)nicotinamide], the half-inhibitory concentration (IC50) against CK1ε came to 3.95 nM; against CK1δ, 0.399 nM.

As to `Cc1nc(-c2ccc(F)cc2)c(-c2ccc3nc(NC(=O)c4ccon4)cn3n2)n1C` [Compound 375, N-(6-(4-(4-fluorophenyl)-1,2-dimethyl-1H-imidazol-5-yl)imidazo[1,2-b]pyridazin-2-yl)-3-isoxazolecarboxamide], the IC50 at CK1ε was 16.3 nM; against CK1δ, 1.91 nM.

As for `Cc1nc(-c2ccc(F)cc2)c(-c2ccc3nc(NC(=O)[C@@H]4CCC(=O)N4)cn3n2)n1C` [Compound 376, N-(6-(4-(4-fluorophenyl)-1,2-dimethyl-1H-imidazol-5-yl)imidazo[1,2-b]pyridazin-2-yl)-5-oxo-L-prolinamide], the IC50 was determined as 78.1 nM at CK1ε and 8.88 nM against CK1δ.

`Cc1n[nH]cc1C(=O)Nc1cn2nc(-c3c(-c4ccc(F)cc4)nc(C)n3C)ccc2n1` [Compound 377, N-(6-(4-(4-fluorophenyl)-1,2-dimethyl-1H-imidazol-5-yl)imidazo[1,2-b]pyridazin-2-yl)-3-methyl-1H-pyrazole-4-carboxamide]: the IC50 against CK1ε is 4.04 nM; against CK1δ, 0.656 nM.

For the compound `Cc1nc(-c2ccc(F)cc2)c(-c2ccc3nc(NC(=O)c4cnoc4)cn3n2)n1C` [Compound 378, N-(6-(4-(4-fluorophenyl)-1,2-dimethyl-1H-imidazol-5-yl)imidazo[1,2-b]pyridazin-2-yl)-4-isoxazolecarboxamide], the IC50 against CK1ε was 60 nM; against CK1δ, 6.19 nM.

For `Cc1cc(C(=O)Nc2cn3nc(-c4c(-c5ccc(F)cc5)nc(C)n4C)ccc3n2)on1` [Compound 379, N-(6-(4-(4-fluorophenyl)-1,2-dimethyl-1H-imidazol-5-yl)imidazo[1,2-b]pyridazin-2-yl)-3-methyl-5-isoxazole-carboxamide], the IC50 came out at 4.94 nM against CK1ε and 0.569 nM at CK1δ.

Take `Cc1nc(-c2ccc(F)cc2)c(-c2ccc3nc(NC(=O)c4cnc[nH]4)cn3n2)n1C` [Compound 380, N-(6-(4-(4-fluorophenyl)-1,2-dimethyl-1H-imidazol-5-yl)imidazo[1,2-b]pyridazin-2-yl)-1H-imidazole-5-carboxamide]: the half-inhibitory concentration (IC50) came to 36.1 nM against CK1ε and 5.23 nM at CK1δ.

As for `Cc1c(C(=O)Nc2cn3nc(-c4c(-c5ccc(F)cc5)nc(C)n4C)ccc3n2)cnn1C` [Compound 381, N-(6-(4-(4-fluorophenyl)-1,2-dimethyl-1H-imidazol-5-yl)imidazo[1,2-b]pyridazin-2-yl)-1,5-dimethyl-1H-pyrazole-4-carboxamide], the IC50 amounted to 3.74 nM at CK1ε and 0.754 nM on CK1δ.

Turning to `Cc1cc(C(=O)Nc2cn3nc(-c4c(-c5ccc(F)cc5)nc(C)n4C)ccc3n2)on1` [Compound 382, N-(6-(4-(4-fluorophenyl)-1,2-dimethyl-1H-imidazol-5-yl)imidazo[1,2-b]pyridazin-2-yl)-3-methyl-5-isoxazole-carboxamide], the IC50 worked out at 103 nM at CK1ε and 21.9 nM on CK1δ.

`Cc1nc(-c2ccc(F)cc2)c(-c2ccc3nc(NC(=O)c4ncccn4)cn3n2)n1C` [Compound 383, N-(6-(4-(4-fluorophenyl)-1,2-dimethyl-1H-imidazol-5-yl)imidazo[1,2-b]pyridazin-2-yl)pyrimidine-2-carboxamide]: the figures for the IC50 at CK1ε and against CK1δ were 17.3 nM and 6.34 nM, respectively.

As to `Cc1nc(-c2ccc(F)cc2)c(-c2ccc3nc(NC(=O)c4ccncn4)cn3n2)n1C` [Compound 384, N-(6-(4-(4-fluorophenyl)-1,2-dimethyl-1H-imidazol-5-yl)imidazo[1,2-b]pyridazin-2-yl)pyrimidine-4-carboxamide], the IC50 turned out to be 29.1 nM against CK1ε and 8.51 nM on CK1δ.

For `Cc1nc(-c2ccc(F)cc2)c(-c2ccc3nc(NC(=O)c4cccnn4)cn3n2)n1C` [Compound 386, N-(6-(4-(4-fluorophenyl)-1,2-dimethyl-1H-imidazol-5-yl)imidazo[1,2-b]pyridazin-2-yl)pyridazine-3-carboxamide], the IC50 against CK1ε amounted to 55.1 nM; against CK1δ, 10.5 nM.

Consider `Cc1nc(-c2ccc(F)cc2)c(-c2ccc3nc(NC(=O)c4cnccn4)cn3n2)n1C` [Compound 388, N-(6-(4-(4-fluorophenyl)-1,2-dimethyl-1H-imidazol-5-yl)imidazo[1,2-b]pyridazin-2-yl)pyrazine-2-carboxamide], for which the IC50 on CK1ε came to 19.4 nM; at CK1δ, 7.12 nM.

As to `Cc1nc(-c2ccc(F)cc2)c(-c2ccc3nc(NC(=O)c4cc(-c5ccc(F)cc5)ncn4)cn3n2)n1C` [Compound 389], the IC50 at CK1ε is 270 nM; against CK1δ it was 35.2 nM.

Take `Cc1nc(-c2ccc(F)cc2)c(-c2ccc3nc(NC(=O)c4cnc(-c5ccncc5)s4)cn3n2)n1C` [Compound 390, N-(6-(4-(4-fluorophenyl)-1,2-dimethyl-1H-imidazol-5-yl)imidazo[1,2-b]pyridazin-2-yl)-2-(pyridin-4-yl)thiazole-5-carboxamide]: the IC50 is 32.6 nM on CK1ε and 7.2 nM against CK1δ.

On to `Cc1nc(-c2ccc(F)cc2)c(-c2ccc3nc(NC(=O)c4ccnnc4)cn3n2)n1C` [Compound 391, N-(6-(4-(4-fluorophenyl)-1,2-dimethyl-1H-imidazol-5-yl)imidazo[1,2-b]pyridazin-2-yl)pyridazine-4-carboxamide], for which the IC50 against CK1ε stood at 10.5 nM; at CK1δ, 4.45 nM.

With `Cc1nc(-c2ccc(F)cc2)c(-c2ccc3nc(NC(=O)c4ccccc4CN(C)C)cn3n2)n1C` [Compound 392, 2-((dimthylamino)methyl)-N-(6-(4-(4-fluorophenyl)-1,2-dimethyl-1H-imidazol-5-yl)imidazo[1,2-b]pyridazin-2-yl)benzamide], the IC50 against CK1ε is 54.5 nM; against CK1δ it was 16.7 nM.
